Experimental data from patent publication US11607446B2, “Personalized immunotherapy against several neuronal and brain tumors” (Immatics Biotechnologies GmbH, priority 2013, dated 2023).
Like-named read-outs stand apart in the source and are kept apart here.

Test system: CD8+ T cells
Assay: In vitro immunogenicity of HLA-A*24 class I peptides: in vitro T-cell priming with aAPCs loaded with peptide/MHC complexes and anti-CD28 antibody, pMHC multimer readout
Format: cell-based, human
Conditions: for Wells: share of positive wells in the in vitro immunogenicity experiments
Procedure: In order to obtain information regarding the immunogenicity of the TUMAPs of the present invention, we performed investigations using an in vitro T-cell priming assay based on repeated stimulations of CD8+ T cells with artificial antigen presenting cells (aAPCs) loaded with peptide/MHC complexes and anti-CD28 antibody.
Isolated CD8+ lymphocytes or PBMCs were incubated until use in T-cell medium (TCM) consisting of RPMI-Glutamax (Invitrogen, Karlsruhe, Germany) supplemented with 10% heat inactivated human AB serum (PAN-Biotech, Aidenbach, Germany), 100 U/ml Penicillin/100 μg/ml Streptomycin (Cambrex, Cologne, Germany), 1 mM sodium pyruvate (CC Pro, Oberdorla, Germany), 20 μg/ml Gentamycin (Cambrex). 2.5 ng/ml IL-7 (PromoCell, Heidelberg, Germany) and 10 U/ml IL-2 (Novartis Pharma, Nurnberg, Germany) were also added to the TCM at this step. Generation of pMHC/anti-CD28 coated beads, T-cell stimulations and readout was performed in a highly defined in vitro system using four different pMHC molecules per stimulation condition and 8 different pMHC molecules per readout condition. All pMHC complexes used for aAPC loading and cytometric readout were derived from UV-induced MHC ligand exchange with minor modifications. In order to determine the amount of pMHC monomer obtained by exchange we performed streptavidin-based sandwich ELISAs according to (Rodenko et al., 2006). The purified co-stimulatory mouse IgG2a anti human CD28 Ab 9.3 (Jung et al., 1987) was chemically biotinylated using Sulfo-N-hydroxysuccinimidobiotin as recommended by the manufacturer (Perbio, Bonn, Germany). Beads used were 5.6 μm diameter streptavidin coated polystyrene particles (Bangs Laboratories, Illinois, USA).
800.000 beads/200 μl were coated in 96-well plates in the presence of 4×12.5 ng different biotin-pMHC, washed and 600 ng biotin anti-CD28 were added subsequently in a volume of 200 μl. Stimulations were initiated in 96-well plates by co-incubating 1×10^6 CD8+ T cells with 2×10^5 washed coated beads in 200 μl TCM supplemented with 5 ng/ml IL-12 (PromoCell) for 3-4 days at 37° C. Half of the medium was then exchanged by fresh TCM supplemented with 80 U/ml IL-2 and incubating was continued for 3-4 days at 37° C. This stimulation cycle was performed for a total of three times, with 12 individual wells per condition For the pMHC multimer readout using 8 different pMHC molecules per condition, a two-dimensional combinatorial coding approach was used as previously described (Andersen et al., 2012) with minor modifications encompassing coupling to 5 different fluorochromes. Finally, multimeric analyses were performed by staining the cells with Live/dead near IR dye (Invitrogen, Karlsruhe, Germany), CD8-FITC antibody clone SK1 (BD, Heidelberg, Germany) and fluorescent pMHC multimers. For analysis, a BD LSRII SORP cytometer equipped with appropriate lasers and filters was used. Peptide specific cells were calculated as percentage of total CD8+ cells. Evaluation of multimeric analysis was done using the FlowJo software (Tree Star, Oregon, USA). In vitro priming of specific multimer+ CD8+ lymphocytes was detected by comparison to irrelevant control stimulations.
Exemplary flow cytometry results after TUMAP-specific multimer staining for two peptides of the invention are shown in FIG. 4 together with corresponding negative controls.

[1] = share of positive donors in the in vitro immunogenicity experiments, given as a class symbol

Substance	Donors [1]	Wells (given as a class symbol)	Donors
NYIDNVGNLHF (listed as Homo sapiens) [LNX1-001]	++ (20%-49 % = ++)	+ (<20% = +)	
VYDTMIEKF (listed as Homo sapiens) [PTP-016]	++ (20%-49 % = ++)	+ (<20% = +)	
IFTYIHLQL (listed as Homo sapiens) [LOC72839-001]	+++ (50%-70% = +++)	+ (<20% = +)	
CRB 1-001 (SYFENVHGF; listed as Homo sapiens)	++ (20%-49 % = ++)	+ (<20% = +)	
KYFDKVVTL (listed as Homo sapiens) [KIF7-001]	++ (20%-49 % = ++)	+ (<20% = +)	
VLPDADTLLHF (listed as Homo sapiens) [APC-001]	++ (20%-49 % = ++)	+ (<20% = +)	
QYQIIMTMI (listed as Homo sapiens) [FADS2-003]	+++ (50%-70% = +++)	+ (<20% = +)	
NYTSLLVTW^+4 (listed as Homo sapiens) [PTP-019]	++ (20%-49 % = ++)	+ (<20% = +)	
NYKDLNGNVF (listed as Homo sapiens) [SSR1-001]	++ (20%-49 % = ++)	+ (<20% = +)	
KFAEEFYSF (listed as Homo sapiens) [CDCA7L-001]	++ (20%-49 % = ++)	+ (<20% = +)	
TYIPPLLVAF (listed as Homo sapiens) [TMEM231-001]	+++ (50%-70% = +++)	+ (<20% = +)	
KYFGGVLEYF (listed as Homo sapiens) [RHOBTB3-001]	++ (20%-49 % = ++)	+ (<20% = +)	
MYPYIYHVL (listed as Homo sapiens) [FAM120C-001]	++++ (>70% = ++++)	++ (20%-49 % = ++)	100%
FYGPQVNNI (listed as Homo sapiens) [WASL-001]	++++ (>70% = ++++)	+ (<20% = +)	
RYLPSSVFL (listed as Homo sapiens) [ZNF749-001]	++ (20%-49 % = ++)	+ (<20% = +)	
NYNDRYDEI (listed as Homo sapiens) [RPL-001]	++ (20%-49 % = ++)	+ (<20% = +)	
VYNDIGKEMLL (listed as Homo sapiens) [KIF1B-002]	++ (20%-49 % = ++)	+ (<20% = +)	
VYLKEANAI (listed as Homo sapiens) [KIF1B-001]	++ (20%-49 % = ++)	+ (<20% = +)	
PFAKPLPTF (listed as Homo sapiens) [EP4-001]	++ (20%-49 % = ++)	+ (<20% = +)	
VYLTIKPLNL (listed as Homo sapiens) [EFCAB7-001]	++ (20%-49 % = ++)	+ (<20% = +)	
YYHFIFTTL (listed as Homo sapiens) [GRIK3-002]	++++ (>70% = ++++)	+ (<20% = +)	
AYPRLSLSF (listed as Homo sapiens) [GAB-001]	++ (20%-49 % = ++)	+ (<20% = +)	
KYNLINEYF (listed as Homo sapiens) [HS2-001]	++ (20%-49 % = ++)	+ (<20% = +)	
YYQIRSSQL (listed as Homo sapiens) [EXOC7-001]	++ (20%-49 % = ++)	+ (<20% = +)	
QYVFIHDTL (listed as Homo sapiens) [PTP-015]	++ (20%-49 % = ++)	+ (<20% = +)	
TYIIKSVGF (listed as Homo sapiens) [UNKN-003]	++ (20%-49 % = ++)	+ (<20% = +)	
